Test results from US5057427A, “Method for resolution of stereoisomers” (Sepracor, Inc., priority 1988, dated 1991).
In brackets after ≈: the same amount, converted by molar mass. Structures can show the parent of a compound that is named as a salt.

Assays:
[1] = test system: Protease XXIII: from Aspergillus oryzae (Enzyme A); experiment: Homogeneous aqueous enzymatic resolution (ester hydrolysis) with Enzyme A; conditions: 100 mg enzyme A, 10 mmol ester in 100 ml 0.2 M phosphate buffer pH 7.0, 20-22° C., 20 hours
Experimental: 10.0 millimole (mmol) of ibuprofen substrate ester 1 (the methyl sulfonate derivative) was dissolved in 100 ml of 0.2 M phosphate buffer of the appropriate cation (sodium or potassium, to be the same as the substrate counterion) at pH 7.0. 100 mg of enzyme A, as the
commercial preparation, was added directly to this solution, and the reaction mixture was capped and then shaken briefly until all the enzyme preparation had dispersed or dissolved. The reaction mixture was then allowed to stand at ambient temperature (20°-22° C.) for 20 hours. […] The combined organic layers were backwashed twice with one volume of water, once with one volume of saturated NaCl solution, and then dried over MgSO4.
Evaporation of the ether under reduced pressure left the resolved ibuprofen acid product; no other purification was performed. The optical rotation was measured in EtOH at a concentration c=1.0 for the ibuprofen acid product.
In this Example, 0.010 mol of ibuprofen ester 3 (the propyl sulfonate derivative) was dissolved in 100 ml 0.2 M sodium phosphate buffer at pH 7.8, and 150 mg of the commercial enzyme A preparation was added. The reaction was then handled as described for Examples 6.2.1.1-6.2.1.7.
In this Example, 0.010 mol of ibuprofen ester 2 (the ethyl sulfonate ester in the form of its potassium salt) were dissolved in 125 ml of 0.2 M sodium phosphate buffer at pH 7.0, and 150 mg of enzyme A was added to the reaction mixture as the commercially supplied preparation. The reaction was allowed to proceed for 18 hours, and the resulting product mixture was then worked-up as described above for Examples 6.2.1.1-6.2.1.7.
150 mg of Protease XXIII (A), as the commercially available preparation, was added to the reaction mixture, the reaction vessel was capped, and the entire heterogeneous reaction mixture was shaken in a wrist-action shaker for 18 hours. […] This mixture was then extracted twice with 200 ml of diethyl ether. The combined organic layers were backwashed twice with one volume of water, once with one volume of saturated NaCl, and the organic phase was then dried over MgSO4. Evaporation of the ether under reduced pressure left the resolved naproxen acid. No further purification was performed. The optical rotation of the product was measured in CHCl3 at a concentration c=1.0.
0.010 mol of naproxen ester 8 (the potassium salt of the ethyl sulfonate ester) was dispersed in 125 ml of 0.2 M sodium phosphate buffer at pH 7.8. 150 mg of enzyme A, as the commercially available preparation, were added, and the reaction handled as described in Example 6.2.1.1.
0.010 mol of ibuprofen ester 6 (the compound) were dissolved in 100 ml of 0.2 M sodium phosphate buffer at pH 7.0. 100 mg of enzyme A was added as the commercially available preparation, and the reaction handled as described above in Examples 6.2.1.1-6.2.1.7.
2.0 gm (0.0058 mole) of naproxen ester 9 (the sulfomethyl compound) was dissolved in 400 ml of 50 mM sodium phosphate buffer at pH 7.5. To the reaction were added 100 mg of Protease XXIII (A) as the commercially available preparation. After the enzyme had dissolved, the reaction mixture was incubated at 25 degrees for 16 hours. The reaction mixture was then acidified to pH 1-2 by the careful dropwise addition of concentrated HCl, and then it was extracted with ether (3×150 ml). The aqueous layer was retained. The combined organic layers were backwashed with water (2×100 ml), and these aqueous washings were added to the previously retained aqueous layer of the reaction. The ether layer was then washed once with 100 ml of brine, and dried over MgSO4.

[2] = test system: protease Prozyme 6 (Enzyme F); experiment: Asymmetric hydrolysis in an extractive dispersion reactor (hexane) with Enzyme F; type: biochemical, Asperqillus oryzae; conditions: 100 mg Prozyme 6, 3.38 gm ester in 100 ml 0.2 M sodium phosphate buffer pH 7.0 and 100 ml hexane, room temperature, 3.5 hours
Experimental: In this Example, the hexane was dispersed in the reaction vessel to extract the inhibitory ibuprofen acid as it is formed. The reaction was started by adding 100 mg of the protease from the fungus Asperqillus oryzae (from Amano Enzyme Corporation, Prozyme 6, 60,000 units per mg of solid).
After 3.5 hours at room temperature with vigorous stirring, the solution was acidified to pH 2 and extracted with 2 volumes of hexane. The aqueous phase was saved for subsequent workup. The hexane phase was dried over MgSO4 and evaporated to dryness. The resolved ibuprofen product so recovered consisted of 490 mg of white powder, indicating 24% conversion. The optical rotation was -0.568° (c=1.015 in ethanol), indicating the R isomer of ibuprofen.

[3] = test system: protease Prozyme 6 (Enzyme F); experiment: Homogeneous aqueous enzymatic resolution (ester hydrolysis) with Enzyme F; type: biochemical, Asperqillus oryzae; conditions: 100 mg protease (F), 3.22 gm ester in 100 ml 0.2 M sodium phosphate buffer pH 7.0, room temperature, 20 hours
Experimental: (Prozyme 6) (F) added. The enzymatic reaction mixtures were capped and briefly shaken until all the substrate had dissolved, and the enzyme had completely dissolved or dispersed. […] Evaporation of the ether left a white solid. Rotations were measured at c=1 in CHCl3.
The enzymatic reaction mixtures were capped and briefly shaken until all the substrate had dissolved, and the enzyme had completely dissolved or dispersed. […] Evaporation of the ether left a white solid. Rotations were measured at c=1 in CHCl3.
The reaction was started by adding 100 mg of the protease (F) from the fungus Asperqillus oryzae (from Amano Enzyme Corporation, Prozyme 6, 60,000 units per mg of solid).
After 20 hours at room temperature, the solution was acidified to pH 2 and extracted with 3 volumes of diethyl ether. The aqueous phase was saved for subsequent workup. The ether phase was washed with two volumes of distilled water and then one volume of saturated sodium chloride, and then it was dried over MgSO4 and subsequently evaporated to dryness. The resolved ibuprofen product recovered was 930 mg of white powder, indicating 45% conversion of racemic ester to acid. The optical rotation was -0.580° (measured at c=1 in ethanol), indicating the R isomer of ibuprofen.
35 mg of protease Enzyme F, as the commercial preparation Prozyme 6, were added to the aqueous solution. The reaction flask was capped, and briefly shaken until all the enzyme had dissolved or dispersed. […] The resulting mixture was diluted with one volume of water and was extracted with diethyl ether (2 times 200 ml). The ether layers were combined and backwashed with water (2 times 200 ml), saturated NaCl solution (200 ml), and then dried over MgSO4.
In this control run, a 0.5 M ester solution of (1) was prepared in 325 ml of 0.1 M sodium phosphate buffer (pH 7.0). The reaction was started by adding 3 gm of the above enzyme (F). The pH was controlled at 7.0 with 8.22 M sodium hydroxide. After 6.49 hours at 30° C., 6.63 ml of hydroxide were added, indicating 37.7% conversion. […]

[4] = target: T1, Protease XXVII: "Nagarse" (Enzyme D) (Bacillus amyloliquefaciens, UniProt P00782); experiment: Homogeneous aqueous enzymatic resolution (ester hydrolysis) with Enzyme D; type: biochemical; conditions: 100 mg enzyme D, 10 mmol ester in 100 ml 0.2 M phosphate buffer pH 7.0, 20-22° C., 20 hours
T1 sequence (P00782 108-382): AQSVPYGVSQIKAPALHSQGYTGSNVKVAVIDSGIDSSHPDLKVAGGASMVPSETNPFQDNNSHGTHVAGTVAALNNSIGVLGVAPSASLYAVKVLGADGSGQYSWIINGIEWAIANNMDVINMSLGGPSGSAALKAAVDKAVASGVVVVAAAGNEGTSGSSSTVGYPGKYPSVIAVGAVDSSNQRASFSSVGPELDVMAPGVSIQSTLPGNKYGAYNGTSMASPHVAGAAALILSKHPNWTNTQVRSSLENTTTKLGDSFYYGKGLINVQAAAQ

[5] = target: T2, Protease XVI: from Bacillus subtilis (Enzyme C) (Bacillus subtilis, UniProt P04189); experiment: Homogeneous aqueous enzymatic resolution (ester hydrolysis) with Enzyme C; type: biochemical; conditions: acid product; 100 mg enzyme C, 10 mmol ester in 100 ml 0.2 M phosphate buffer pH 7.0, 20-22° C., 20 hours
T2 sequence (P04189 107-381): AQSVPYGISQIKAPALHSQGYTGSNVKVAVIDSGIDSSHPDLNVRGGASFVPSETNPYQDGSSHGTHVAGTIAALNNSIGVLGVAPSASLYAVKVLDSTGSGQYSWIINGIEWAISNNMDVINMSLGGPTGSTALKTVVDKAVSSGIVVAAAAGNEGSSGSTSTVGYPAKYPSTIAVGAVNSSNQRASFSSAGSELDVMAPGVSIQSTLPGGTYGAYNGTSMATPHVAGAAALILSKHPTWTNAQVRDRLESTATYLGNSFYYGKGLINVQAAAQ

[6] = target: T3, Protease VIII: "Subtilopeptidase A" (subtilisin Carlsberg) (Enzyme B) (Bacillus licheniformis, UniProt P00780); experiment: Homogeneous aqueous enzymatic resolution (ester hydrolysis) with Enzyme B; type: biochemical; conditions: 100 mg enzyme B, 10 mmol ester in 100 ml 0.2 M phosphate buffer pH 7.0, 20-22° C., 20 hours
T3 sequence (P00780 106-379): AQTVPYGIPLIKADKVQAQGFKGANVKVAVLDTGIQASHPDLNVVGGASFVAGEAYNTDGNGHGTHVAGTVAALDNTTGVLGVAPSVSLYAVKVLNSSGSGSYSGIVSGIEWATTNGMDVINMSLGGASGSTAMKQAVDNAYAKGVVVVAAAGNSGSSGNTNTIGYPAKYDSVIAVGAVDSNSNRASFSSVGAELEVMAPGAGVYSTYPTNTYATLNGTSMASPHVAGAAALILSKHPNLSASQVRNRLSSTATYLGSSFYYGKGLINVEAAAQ

[7] = test system: Protease XXIII: from Aspergillus oryzae (Enzyme A); experiment: Rates of hydrolysis of the two enantiomers (pH stat), Enzyme A; type: biochemical; conditions: for Rate (rate of hydrolysis): 50 mM ester, 50 mM buffer pH 7.6, 0.1 ml of 50 mg/ml enzyme A
Experimental: (§1) 15 ml of a solution containing one enantiomer of the ester at a concentration of 50 mM, and Na buffer at 50 mM and pH 7.6 was observed using a pH stat device. 0.1 ml of a 50 mg/ml solution of enzyme A, made up from the commercially available preparation in 50 mM Na3 PO4 buffer at pH 7.6, were added. Rates of hydrolysis of both enantiomers of the ester compound were determined for the enzyme. The ratio of the rates of hydrolysis for the two enantiomers for the two enantiomers with respect to the enzyme indicate the stereospecificity of that enzyme's hydrolytic action on the racemic mixture of the ester. No evidence for the hydrolysis of the acetylthio ester portion of the substrate molecule was found.

[8] = target: T1, Protease XXVII: "Nagarse" (Enzyme D); experiment: Rates of hydrolysis of the two enantiomers (pH stat), Enzyme D; type: biochemical; conditions: 50 mM ester, 50 mM buffer pH 7.6, 0.1 ml of 50 mg/ml enzyme D
Experimental: as §1, with “and Na3 PO4” for “and Na”, “enzyme D,” for “enzyme A,”, “the thioacetyl” for “the acetylthio”

[9] = test system: Protease XIV: from Streptomyces griseus (Enzyme G); experiment: Rates of hydrolysis of the two enantiomers (pH stat), Enzyme G; type: biochemical; conditions: for Rate (rate of hydrolysis): 50 mM ester, 50 mM buffer pH 7.6, 0.1 ml of 50 mg/ml enzyme G
Experimental: as §1, with “mM, and Na3 PO4 buffer at” for “mM, and Na buffer at”, “solution of protease enzyme G,” for “solution of enzyme A,”, “protease enzyme G, made up” for “of enzyme A, made up”, “50 mM Na buffer at” for “50 mM Na3 PO4 buffer at”, “for the protease enzyme. The” for “for the enzyme. The”

[10] = test system: Protease XXIV: bacterial protease (Enzyme H); experiment: Rates of hydrolysis of the two enantiomers (pH stat), Enzyme H; type: biochemical; conditions: for Rate (rate of hydrolysis): 50 mM ester, 50 mM buffer pH 7.6, 0.1 ml of 50 mg/ml Enzyme H
Experimental: as §1, with “and Na3 PO4” for “and Na”, “of Enzyme H,” for “of enzyme A,”

[11] = target: T3, Protease VIII: "Subtilopeptidase A" (subtilisin Carlsberg) (Enzyme B); experiment: Rates of hydrolysis of the two enantiomers (pH stat), Enzyme B; type: biochemical; conditions: 50 mM ester, 50 mM buffer pH 7.6, 0.1 ml of 50 mg/ml enzyme B
Experimental: as §1, with “B,” for “A,”, “Na” for “Na3 PO4”

[12] = Solubility by absorbance of saturated solutions at 262 nm; type: physicochemical; conditions: saturated solution, pH 7, 5 mM phosphate buffer, room temperature

## CC(C)Cc1ccc(C(C)C(=O)OCS(=O)(=O)O)cc1 (centres unmarked) [Compound 1, Sodium Salt of 4-Sulfomethyl Ester of 2-(4-Isobutylphenyl)propanoic Acid]
[1]
  % CONVERSION: 37.9%
[1]; acid product
  % e.e.: > 99%
[2]
  conversion: 24%
[3]
  conversion of racemic ester to acid: 45%
[4]
  % CONVERSION: 34.0%
[4]; acid product
  % e.e.: 37.7%
[5]
  % e.e.: 70.7%
[6]
  % CONVERSION: 29.1%
[6]; acid product
  % e.e.: 44.6%

## CC(=O)SC[C@@H](C)C(=O)OCS(=O)(=O)O [Compound 14, Potassium Salt of the Sulfomethyl Ester of D-(-)-S-3-Acetylthio-2-methylpropanoic Acid]
[7]
  Rate (rate of hydrolysis): 5.3 umols/hr/mg
[8]
  Rate (rate of hydrolysis): 27 umols/hr/mg
[9]
  Rate (rate of hydrolysis): 63 umols/hr/mg
[10]
  Rate (rate of hydrolysis): 61 umols/hr/mg
[11]
  Rate (rate of hydrolysis): 65 umols/hr/mg

## CC(=O)SC[C@H](C)C(=O)OCS(=O)(=O)O [Compound 15, Potassium Salt of the Sulfomethyl Ester of L-(+)-S-3-Acetylthio-2-methylpropanoic Acid]
[7]
  Rate (rate of hydrolysis): 12 umols/hr/mg
[7]; enzyme A, pH 7.6
  Rate Ratio L/D: 2.3
[8]
  Rate (rate of hydrolysis): 29 umols/hr/mg
[9]
  Rate (rate of hydrolysis): 105 umols/hr/mg
[9]; enzyme G, pH 7.6
  Rate Ratio L/D: 1.7
[10]
  Rate (rate of hydrolysis): 65 umols/hr/mg
[10]; Enzyme H, pH 7.6
  Rate Ratio L/D: 1.1
[11]
  Rate (rate of hydrolysis): 135 umols/hr/mg

## COCCOC(=O)C(C)c1ccc(CC(C)C)cc1 (centres unmarked) [Methoxyethyl ester of ibuprofen]
[12]
  Solubility: 180 µM (≈ 47.6 µg/mL)
